The record followed here is US20040034052A1, “Tricyclic derivatives of indole with antiangiogenic activity” (priority 2003, published 2004).

Series [1] has as its system MCF-7 (human mammary carcinoma). The series is described as follows: Sulforodamine B antiproliferative test, sensitive MCF-7 cells. Type of series: cell-based. Particulars: MCF7, MCF-7 sensitive, 24 hours incubation, survival after another 48 hours, read-out: IC50 +/− SD, antiproliferative activity vs sensitive cell, MCF-7. The method, then: (§1) For the cytotoxic activity, proliferation screening tests were used, with different tumour lines, such as MCF-7 (human mammary carcinoma), LoVo (human colon carcinoma), MES-SA (human uterine sarcoma), or K-562 (human chronic myeloid leukaemia).
(§2) The test used was the sulforodamine B test used for screening anticancer products at the National Cancer Institute (Skehan, 1990). The molecules at scalar concentrations over a range from 500 μM to 0.97 μM, were incubated in parallel with different human cell lines for 24 hours. After removing the products, cell survival was investigated after another 48 hours with the NCI test. The antiproliferative capacity of the compounds was quantified in terms of IC50±SD (concentration of the molecule that inhibits 50% of cell survival) processed using a curve fitting program (De Lean et al., 1978).

Series [2] relates to LoVo (human colon carcinoma). In words: Sulforodamine B antiproliferative test, sensitive LoVo cells. The series is classed as cell-based. Particulars: 24 hours incubation, survival after another 48 hours, read-out: IC50 +/− SD, antiproliferative activity vs sensitive cell, LoVo. The procedure: as §1, §2
Series [3] concerns MCF-7 resistant cell (MCF-7/Dx, overexpressing P-glycoprotein, resistant to doxorubicin). In words: Antiproliferative activity vs resistant cells, MCF-7. Particulars: Homo sapiens, MCF7; MCF-7 resistant (doxorubicin-resistant); read-out: IC50 +/− SD, antiproliferative activity vs resistent cell, MCF-7. Type of series: cell-based. The method, then: as §2
(§3) The cytotoxicity of the molecules on tumour lines resistant to chemosensitising activity was assessed on various tumour cell lines overexpressing P-glycoprotein and resistant to doxorubicin (100-fold) and cross-resistant to daunorubicin, actinomycin D, mitoxantrone, vincristine, vinblastine, taxol, colchicine, and etoposide. The cytotoxicity of the products was assessed using the same test adopted for the sensitive tumour cells.

The test system of series [4] is LoVo resistant cell (LoVo/Dx, overexpressing P-glycoprotein, resistant to doxorubicin). The series is described as follows: Antiproliferative activity vs resistant cells, LoVo. Type of series: cell-based. Particulars: Homo sapiens, read-out: IC50 +/− SD, antiproliferative activity vs resistent cell, LoVo. The procedure:
as §2, §3

A further series has as its system MCF-7 cells. In words: Cell cycle and apoptosis analysis (propidium iodide, FACS) on MCF-7 cells. Type of series: cell-based, human. The method, then: The cell cycle and apoptosis analysis on a tumour line was done by incubating the products for 24 hours at a concentration equal to approximately the IC50 Values with MCF-7 cells. The molecules were removed and the cell cycle and apoptosis were assessed at different times (0, 24, 48 hours). The cells were stained with propidium iodide and analysed with a cytofluorimeter (FACS) ([…] fluorescence activated cell sorter) by means of an argon ion laser set at 488 nm for the excitation. To assess the percentage of cells in the various stages of the cycle, linear DNA histograms were analysed with a cell fit program distributed by the equipment manufacturer. For the analysis of apoptosis, a region was inserted below the G0/G1 peak of the control population and the data were analysed with software supplied by the company (Lysis II-C32).

A further series relates to MCF-7/Dx line. In words: Potentiation of doxorubicin cytotoxicity (MDR ratio), MCF-7/Dx. Particulars: compound at 11 μM. The series is classed as cell-based, human. The method, then:
as §3
(§4) Later, the products were assayed at a concentration lower than or equal to the one that inhibits 10% of cell survival. At this concentration, the molecules were tested in parallel in the absence and presence of doxorubicin. MDR ratios were calculated for the IC50 values in order to establish the degree of potentiation of the cytotoxic activity of doxorubicin induced by the product (MDR ratio) (De Lean et al. (1978) A. J. Physiol. 235, E97-102); (Skehan et al. (1990) J. Natl. Cancer Inst. 82, 1107-1112).

A further series relates to LoVo/Dx cell line. In words: Potentiation of doxorubicin cytotoxicity (MDR ratio), LoVo/Dx. The series is classed as cell-based, human. Particulars: compound at 11 μM. The method, then:
as §3, §4

A short description of series [5]: Cytotoxicity on endothelial cells (BMEC). The series is classed as cell-based, bovine. Particulars: bovine, BMEC (bovine medullary endothelial cell) cultures.
In series [6] the test system is BMEC (bovine medullary endothelial cell). In words: Cytotoxicity on endothelial cells (BMEC). Type of series: cell-based. Particulars: BMEC.
The test system is the same in series [7]. In words: Chemotactic assay with the Boyden chamber on BMEC. Particulars: for % inhibition of migration at IC0/D.S.: BMEC, at IC0, chemotactic stimulus 1% bovine serum in DMEM. The series is classed as cell-based. The procedure:
For the antiangiogenic activity the chemotactic assay with the Boyden chamber was performed (Werner F., Goodwin R. H. and Leonard E. J., Journal of Immunological Methods 1980; 33, 239-247), using both bovine aortal endothelial cell (BAEC) cultures and bovine medullary endothelial cell (BMEC) cultures. The assays were performed at IC0 (maximum non-cytotoxic concentration) and the results expressed as % inhibition of migration across a porous filter in response to a chemotactic stimulus (1% bovine serum in DMEM culture medium). This finding was obtained by direct cell count under the optical microscope, and the percentage migration inhibition was calculated according to the formula (T−C/C)×100, where T=mean number of cells migrating in the sample and C=mean number of cells migrating in the control. The control consisted of cells which migrated towards the serum, not treated with the study molecules, and included in every chemotaxis experiment. The data refer to the readings of 5 microscopic fields/well in 4 independent chemotaxis wells per sample.

[8] abbreviates: read-out: IC50 (μM), cytotoxicity on BMEC.

Molecules are shown by their SMILES. Where two headings read alike, the source gives them in different places.

For the molecule `CC1(C)OCC(C2c3c([nH]c4ccccc34)C(c3c[nH]c4ccccc34)C3OC(C)(C)OC32)O1` (racemic) [ST1372, 1-(indol-3-yl)-2,3-O-isopropylidene-4-(2,3-O-isopropylidene-ethyl)-tetrahydrocarbazole], the melting point was 204 to 206 °C (dec.). Besides, the IC50 in series [1] came out at 21.1 µM. Further, the IC50 in [2] worked out at 21.7 µM. For the same molecule, in series [3], the IC50 amounted to 21.1 µM. In addition, in series [4], the IC50 worked out at 21.7 µM. The “increases and blocks in G0/G1 (% of the cell)” value in the series on MCF-7 cells (MCF-7, 20 μM, relative to control) stood at 23%. The “increases and blocks in G0/G1 (% of the cell)” value with MCF-7 cells (MCF-7, 40 μM, relative to control) was 32%. In addition, in the series with MCF-7 cells (MCF-7, compound at 20 μM), the “G0/G1 (%)” value is recorded as 20 μM = 54.4%, the “G2 + M (%)” value is listed as 20 μM = 11.4% and the “S(%)” value worked out at 20 μM = 34.2%. Moreover, in the series with MCF-7 cells (MCF-7, compound at 40 μM), the “G0/G1 (%)” value is 40 μM = 57.8%, the “G2 + M (%)” value amounted to 40 μM = 5.4%, the “S(%)” value was found to be 40 μM = 36.8% and the “Apoptosis 48 h (%)” value came to 40 μM = 16%. In addition, the “increase of the activity of Doxorubicin (MDR ratio)” value in the series with MCF-7/Dx line was 3,5 times. In addition, the “increase of the activity of Doxorubicin (MDR ratio)” value in the series with LoVo/Dx cell line is 3,5 times.

With `c1ccc2c(C3CCCCc4c3[nH]c3ccccc43)c[nH]c2c1` (racemic) [ST1381, 1-(indol-3-yl)-indo [2,3a]-cycloheptan.], the IC50 in series [1] was 28.5 µM; in [2], 22.5 µM; in [3] it was 28.4 µM; in [4] it was 25.2 µM; in series [5] (endothelial cell, read-out: cytotoxicity vs endotelial cell (IC)), over 100 µM; in series [6], over 100 µM. The “increases and blocked in G0/G1 (% of the cell line)” value in the series with MCF-7 cells (MCF-7, 30 μM, relative to control) is on record as 32%. The “G0/G1 (%)” value with MCF-7 cells (MCF-7, compound at 30 μM) amounted to 30 μM = 57.7%. The “G2 + M (%)” value in the series with MCF-7 cells (MCF-7, compound at 30 μM) turned out to be 30 μM = 10.1%. In addition, the “S(%)” value in the series on MCF-7 cells (MCF-7, compound at 30 μM) was found to be 30 μM = 32.2%. The “Apoptosis 48 h (%)” value in the series with MCF-7 cells (MCF-7, compound at 30 μM) was determined as 30 μM = 3.3%. The “IC0 (μM) (maximum non-cytotoxic concentration)” value in series [6] stood at 30 µM. In [7], the “% inhibition of migration at IC0/D.S.” value is given as −61.7%. Also, the “chemotaxis of endothelial cells (in words)” value in [7] is reported as “active for the chemotaxys”; in series [7] (listed as ST 1381), “the better anti-chemiotactic compound”.

Consider `OCCCCC(c1cc2cc3c(cc2[nH]1)OCO3)c1c[nH]c2cc3c(cc12)OCO3` (racemic) [ST1423, (R,S)-5-hydroxy-1,1-di-(5′,6′-methylendioxy-indol-2-yl,5 ″,6″-methylendioxy-indol-3-yl)-pentane], for which the melting point is 220 °C (dec.).

As to `c1ccc2c(C3CCCCc4[nH]c5ccccc5c43)c[nH]c2c1` (racemic) [ST1621, 5-(indol-3-yl)-indo [2,3a]-cycloheptan.], the IC50 amounted to 22.5 µM in series [1]; 34.8 µM in [2]; 68.3 µM in series [3]; 23.8 µM in series [4]; 10 µM in [5] (setting [8]). The “IC0 (μM) (maximum non-cytotoxic concentration)” value in series [6] is 0.1 µM. In addition, the “% inhibition of migration at IC0/D.S.” value in [7] is −43 +/− 4%.

For `c1ccc2c(C3CCCc4c3[nH]c3ccccc43)c[nH]c2c1` (racemic) [ST1728, 1-(1H-indol-3-yl)-tetrahydro-1H-carbazole], the melting point worked out at 207 °C. Also, in series [1], the IC50 worked out at 22 µM. The IC50 in series [2] stood at 22.8 µM.

As to `c1ccc2c(C3CCCc4[nH]c5ccccc5c43)c[nH]c2c1` (racemic) [ST1729, 4-(1H-indol-3-yl)-tetrahydro-1H-carbazole], the melting point is 182 °C. Moreover, in [1], the IC50 was 35 µM. Moreover, the IC50 in [2] came out at 50.5 µM. Besides, the IC50 in series [5] (setting [8]) was found to be 80 µM. In series [6], the “IC0 (μM) (maximum non-cytotoxic concentration)” value was determined as 25 µM. The “% inhibition of migration at IC0/D.S.” value in series [7] is listed as −40 +/− 3%.

`c1[nH]c2cc3c(cc2c1C1CCCCc2c1[nH]c1cc4c(cc21)OCO4)OCO3` (racemic) [ST1749, 1-(5″, 6″-methylendioxy-indol-3-yl)-5′,6′-methyleridioxy-indo [2,3-a]-cycloeptane]: the melting point is 184 °C (dec.). Also, in series [5] (setting [8]), the IC50 is over 200 µM. Also, the “IC0 (μM) (maximum non-cytotoxic concentration)” value in series [6] was 100 µM. Also, the “% inhibition of migration at IC0/D.S.” value in [7] was −40 +/− 3%.

`c1[nH]c2cc3c(cc2c1C1CCCc2c1[nH]c1cc4c(cc21)OCO4)OCO3` (racemic) [ST1751, 1-(5′,6′-methylendioxy-1H-indol-3-yl)-6,7-methylendioxy-tetrahydro-1H-carbazole]: the melting point is 200 °C (dec.). The IC50 in [3] was 58.6 µM.

`c1ccc(COc2ccc3[nH]cc(C4CCCCc5c4[nH]c4ccc(OCc6ccccc6)cc54)c3c2)cc1` (racemic) [ST1765, 1-(5″-benzyloxy-indol-3-yl)-5′-benzyloxy-indo[2,3a]-cycloheptan.]: the melting point is 286 °C (dec.). Also, the IC50 in [1] stood at 11.5 µM. Also, the IC50 in [2] came to 10.5 µM. The IC50 in [3] was 24.8 µM. Also, in series [4], the IC50 came out at 17 µM.

In the case of `c1[nH]c2cc3c(cc2c1C1CCCc2[nH]c4cc5c(cc4c21)OCO5)OCO3` (racemic) [ST1777, 4-(5′,6′-methylendioxy-1H-indol-3-yl)-6,7-methylendioxy-tetrahydro-1H-carbazole], the figures for the IC50 in series [1] and in series [2] were 0.96 µM and 0.64 µM, respectively.

As to `c1ccc(COc2ccc3[nH]cc(C4CCCCc5[nH]c6ccc(OCc7ccccc7)cc6c54)c3c2)cc1` (racemic) [ST1778, 5-(5″-benzyloxy-indol-3-yl)-5′-benzyloxy-indo[2,3a]-cycloheptan.], the IC50 in series [1] is 28.5 µM; in series [2], 54.5 µM; in series [3] it was 71 µM; in [4] it was 65.1 µM; in [5] (setting [8]) it was 50 µM. The “IC0 (μM) (maximum non-cytotoxic concentration)” value in series [6] was found to be 25 µM. In addition, in series [7], the “% inhibition of migration at IC0/D.S.” value is recorded as −40 +/− 4%.

Take `Oc1ccc2[nH]cc(C3CCCCc4c3[nH]c3ccc(O)cc43)c2c1` (racemic) [ST1783, 1-(5″-hydroxy-1H-indol-3-yl)-5′-hydroxy-indo[2,3a]-cycloheptan.]: the IC50 in series [1] came out at 27 µM; in series [2] it was 29 µM; in series [3] it was 39 µM; in series [5] (setting [8]), 60 µM. For the same molecule, the “IC0 (μM) (maximum non-cytotoxic concentration)” value in [6] is 10 µM. Moreover, in [7], the “% inhibition of migration at IC0/D.S.” value was −46%.

As to `OCCCCC(c1c[nH]c2cc3c(cc12)OCO3)c1c[nH]c2cc3c(cc12)OCO3` [ST1422, 5-hydroxy-1,1-di-(5,6-methylendioxy-indol-3-yl)-pentane], the melting point is 200 °C (dec.).

On to `OCCCC(c1c[nH]c2cc3c(cc12)OCO3)c1c[nH]c2cc3c(cc12)OCO3` [ST1730, 4-hydroxy-1,1-di-(5′,6′-methylendioxy-indol-3-yl)-butane], for which the melting point is 240 °C (dec.).
